Consider five compounds from ChEMBL document CHEMBL1158732, “Intercedensides D-I, cytotoxic triterpene glycosides from the sea cucumber Mensamaria intercedens Lampert” (2005).

The subject of one assay is A549. The assay is described as follows: Cytotoxicity against human A549 cells by SRB method. The class given is functional. Conditions: read-out: ED50 (the source's name). On the technique in general: The SRB assay estimates cell density from bound dye.
For a further assay, the system named is MCF7. Briefly: Cytotoxicity against human MCF7 cells by SRB method. Conditions: read-out: ED50 (the source's name). The class given is functional.
The test system of the next assay is 1A9. The assay is described as follows: Cytotoxicity against human 1A9 cells by SRB method. The class given is functional. The following applies: read-out: ED50 (the source's name).
The subject of a further assay is CAKI-1. The assay is described as follows: Cytotoxicity against human Caki1 cells by SRB method. Type of assay: functional. The following applies: read-out: ED50 (the source's name).
Assay [1] in a line: Cytotoxicity against human U87MG cells by SRB method. Type of assay: functional, U-87MG ATCC. The following applies: U-87 MG, read-out: ED50 (the source's name).
The subject of a further assay is PC-3. Briefly: Cytotoxicity against human PC3 cells by SRB method. Conditions: read-out: ED50 (the source's name). The class given is functional.
The subject of another assay is KB. The assay is described as follows: Cytotoxicity against human KB cells by SRB method. The class given is functional. The following applies: read-out: ED50 (the source's name).
Assay [2] in a line: Cytotoxicity against human KBVIN cells by SRB method. The class given is functional. The following applies: read-out: ED50 (the source's name).
Another assay deals with SK-MEL-2. Briefly: Cytotoxicity against human SK-MEL-2 cells by SRB method. Type of assay: functional. Conditions: read-out: ED50 (the source's name).
The next assay has as its system HCT-8. The assay is described as follows: Cytotoxicity against human HCT8 cells by SRB method. Type of assay: functional. Conditions: read-out: ED50 (the source's name).

As to `CO[C@@H]1[C@@H](O)[C@H](O[C@@H]2[C@@H](O)[C@H](O[C@@H]3CO[C@@H](O[C@H]4[C@H](O[C@H]5CC[C@]6(C)[C@@H]7CC[C@]89C(=O)O[C@@](C)(/C=C\C=C(C)C)[C@@]8(O)[C@@H](OC(C)=O)C[C@@]9(C)C7=CC[C@H]6C5(C)C)OC[C@@H](OS(=O)(=O)[O-])[C@@H]4O)[C@H](O)[C@H]3O)OC[C@H]2O)O[C@H](CO)[C@H]1O.[Na+]` [LNTERCEDENSIDE E], the EC50 was 1.4 µg/mL with A549; 1.4 µg/mL in the assay with MCF7; 1.7 µg/mL in the assay with 1A9; 1.6 µg/mL in the assay with CAKI-1; 2.1 µg/mL in assay [1]; 1.7 µg/mL in the assay on PC-3. Further, the EC50 with KB was found to be 1.9 µg/mL; in assay [2] it was 2 µg/mL; with SK-MEL-2, 1.6 µg/mL; in the assay with HCT-8, 1.1 µg/mL.
For `CO[C@@H]1[C@@H](O)[C@H](O[C@@H]2[C@@H](O)[C@H](O[C@H]3[C@H](O)[C@@H](O)[C@H](O[C@H]4[C@H](O[C@H]5CC[C@]6(C)[C@@H]7CC[C@]89C(=O)O[C@@](C)(/C=C\C=C(C)C)[C@@]8(O)[C@@H](OC(C)=O)C[C@@]9(C)C7=CC[C@H]6C5(C)C)OC[C@@H](OS(=O)(=O)[O-])[C@@H]4O)O[C@@H]3C)OC[C@H]2O)O[C@H](CO)[C@H]1O.[Na+]` [LNTERCEDENSIDE H], the EC50 with A549 worked out at 1.4 µg/mL; with MCF7, 1.8 µg/mL; with 1A9 it was 0.96 µg/mL; in the assay with CAKI-1, 1 µg/mL; in [1], 3.2 µg/mL; with PC-3, 2.2 µg/mL. Besides, the EC50 in the assay on KB is 3 µg/mL; in [2], 3.7 µg/mL; in the assay with SK-MEL-2, 2.2 µg/mL; with HCT-8, 1.9 µg/mL.
Turning to `CO[C@@H]1[C@@H](O)[C@H](O[C@@H]2[C@@H](O)[C@H](O[C@@H]3CO[C@@H](O[C@H]4[C@H](O[C@H]5CC[C@]6(C)[C@@H]7CC[C@]89C(=O)O[C@@](C)(/C=C\C=C(C)C)C8[C@@H](OC(C)=O)C[C@@]9(C)C7=CC[C@H]6C5(C)C)OC[C@@H](OS(=O)(=O)[O-])[C@@H]4O)[C@H](O)[C@H]3O)OC[C@H]2O)O[C@H](CO)[C@H]1O.[Na+]` (stereo not given in full) [LNTERCEDENSIDE G], the EC50 amounted to 1.6 µg/mL in the assay on A549; 2 µg/mL with MCF7; 1.9 µg/mL in the assay with 1A9; 3.8 µg/mL in the assay with CAKI-1; 3.3 µg/mL in [1]; 2 µg/mL in the assay with PC-3. Besides, the EC50 in the assay with KB was determined as 3.3 µg/mL; in assay [2], 3.9 µg/mL; with SK-MEL-2, 2.4 µg/mL; with HCT-8, 1.8 µg/mL.
`CO[C@@H]1[C@@H](O)[C@H](O[C@@H]2[C@@H](O)[C@H](O[C@H]3[C@H](O)[C@@H](O)[C@H](O[C@H]4[C@H](O[C@H]5CC[C@]6(C)[C@@H]7CC[C@]89C(=O)O[C@@](C)(/C=C\C=C(C)C)[C@@]8(O)[C@@H](OC(C)=O)C[C@@]9(C)C7=CC[C@H]6C5(C)C)OC[C@@H](OS(=O)(=O)[O-])[C@@H]4O)O[C@@H]3CO)OC[C@H]2O)O[C@H](CO)[C@H]1O.[Na+]` [LNTERCEDENSIDE D]: the EC50 was 1.8 µg/mL with A549; 2.4 µg/mL in the assay with MCF7; 2.4 µg/mL with 1A9; > 5 µg/mL in the assay on CAKI-1; 4.1 µg/mL in assay [1]; 3.3 µg/mL with PC-3. Besides, the EC50 in the assay with KB stood at 3.7 µg/mL; in assay [2] it was 4.3 µg/mL; in the assay with SK-MEL-2, 4.2 µg/mL; with HCT-8, 2.9 µg/mL.
With `CO[C@@H]1[C@@H](O)[C@H](O[C@@H]2[C@@H](O)[C@H](O[C@H]3[C@H](O)[C@@H](O)[C@H](O[C@H]4[C@H](O[C@H]5CC[C@]6(C)[C@@H]7CC[C@]89C(=O)O[C@@](C)(CCC=C(C)C)[C@@]8(O)[C@@H](OC(C)=O)C[C@@]9(C)C7=CC[C@H]6C5(C)C)OC[C@@H](OS(=O)(=O)[O-])[C@@H]4O)O[C@@H]3CO)OC[C@H]2O)O[C@H](CO)[C@H]1O.[Na+]` [INTERCEDENSIDE F], the EC50 in the assay on A549 was 1.7 µg/mL; in the assay with MCF7, 2.1 µg/mL; in the assay on 1A9, 1.7 µg/mL; in the assay on CAKI-1, 1.7 µg/mL; in [1] it was 3.3 µg/mL; with PC-3, 2.3 µg/mL. Also, the EC50 stood at 3.2 µg/mL with KB, 3.2 µg/mL in [2], 2.1 µg/mL with SK-MEL-2 and 1.9 µg/mL in the assay with HCT-8.
